Experimental data from patent US20180147187A1, “COMPOUNDS, COMPOSITIONS, AND METHODS FOR INCREASING CFTR ACTIVITY” (Proteostasis Therapeutics, Inc., priority 2006, published 2018).

Legend:
ΔF508-CFTR [1] = target: T1, ΔF508-CFTR (Homo sapiens, UniProt P13569, DEL508-508); test: hBE Equivalent Current (Ieq) Assay; type: cell-based; settings: compound at 10 uM and VX-809 at 1 uM; ΔF508 homozygous hBE, 24 hours; AUC of equivalent chloride current
T1 construct: primary lung epithelial cells (hBEs) homozygous for the Cystic Fibrosis-causing ΔF508 mutation; endogenous in cells; host or cells: primary human bronchial epithelial cells (hBE), ΔF508/ΔF508, differentiated at air-liquid interface
T1 sequence (P13569 with tags, fused parts or gaps DEL508-508): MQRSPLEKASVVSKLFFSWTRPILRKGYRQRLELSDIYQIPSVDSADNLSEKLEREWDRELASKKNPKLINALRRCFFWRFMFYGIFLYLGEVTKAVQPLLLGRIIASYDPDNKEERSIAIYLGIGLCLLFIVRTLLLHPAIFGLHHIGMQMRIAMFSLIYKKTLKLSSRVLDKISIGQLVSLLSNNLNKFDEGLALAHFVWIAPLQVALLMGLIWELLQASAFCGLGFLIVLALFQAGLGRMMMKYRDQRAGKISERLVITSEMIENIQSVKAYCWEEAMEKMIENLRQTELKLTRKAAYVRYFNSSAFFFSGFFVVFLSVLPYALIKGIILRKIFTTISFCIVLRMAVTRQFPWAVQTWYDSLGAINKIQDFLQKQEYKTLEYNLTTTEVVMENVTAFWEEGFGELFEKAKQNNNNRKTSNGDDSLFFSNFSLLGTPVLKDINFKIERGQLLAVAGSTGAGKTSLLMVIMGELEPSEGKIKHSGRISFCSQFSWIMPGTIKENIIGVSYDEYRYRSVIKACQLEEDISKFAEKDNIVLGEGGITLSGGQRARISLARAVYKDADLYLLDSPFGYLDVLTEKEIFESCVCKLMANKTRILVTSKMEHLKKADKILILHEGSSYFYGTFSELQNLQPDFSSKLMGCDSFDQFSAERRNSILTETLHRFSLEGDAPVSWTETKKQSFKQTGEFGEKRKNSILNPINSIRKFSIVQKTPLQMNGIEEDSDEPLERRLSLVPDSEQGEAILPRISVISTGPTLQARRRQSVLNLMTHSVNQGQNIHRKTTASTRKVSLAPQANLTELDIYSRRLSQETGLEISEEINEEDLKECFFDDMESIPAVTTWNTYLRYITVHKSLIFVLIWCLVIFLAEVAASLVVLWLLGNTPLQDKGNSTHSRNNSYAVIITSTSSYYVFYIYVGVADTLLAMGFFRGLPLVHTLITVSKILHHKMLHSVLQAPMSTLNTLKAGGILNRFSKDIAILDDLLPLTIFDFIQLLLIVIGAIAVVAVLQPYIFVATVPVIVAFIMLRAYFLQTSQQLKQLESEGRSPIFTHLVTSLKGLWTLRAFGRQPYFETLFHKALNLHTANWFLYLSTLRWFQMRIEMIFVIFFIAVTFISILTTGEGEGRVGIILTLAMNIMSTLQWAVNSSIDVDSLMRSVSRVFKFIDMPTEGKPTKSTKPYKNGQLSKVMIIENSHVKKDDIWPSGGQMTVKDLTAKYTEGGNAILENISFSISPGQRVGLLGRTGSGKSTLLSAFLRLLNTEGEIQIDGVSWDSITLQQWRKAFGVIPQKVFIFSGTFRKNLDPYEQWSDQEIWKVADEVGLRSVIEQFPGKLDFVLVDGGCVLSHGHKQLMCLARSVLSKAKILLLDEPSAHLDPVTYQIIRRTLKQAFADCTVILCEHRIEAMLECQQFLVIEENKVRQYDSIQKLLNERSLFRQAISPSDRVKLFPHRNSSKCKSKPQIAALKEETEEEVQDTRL
Protocol: Primary lung epithelial cells homozygous for the Cystic Fibrosis-causing ΔF508 mutation were differentiated for a minimum of 4 weeks in an air-liquid interface on Costar 24 well HTS filter plates prior to the equivalent current (Ieq) measurements. Cells were apically mucus-washed for 30 minutes 24 h prior to treatment with compounds. The basolateral media was removed and replaced with media containing the compound of interest diluted to its final concentration from DMSO stocks. Treated cells were incubated at 37° C. and 5% CO2 for 24 hours. At the end of the treatment period, the media was changed to the Ieq experimental solution for 30 minutes before the experiment and plates are maintained in a CO2-free incubator during this period. The plates containing the cells were then placed in pre-warmed heating blocks at 36° C.±0.5 for 15 minutes before measurements are taken. The transepithelial voltage (VT) and conductance (GT) were measured using a custom 24 channel current clamp (TECC-24) with 24 well electrode manifold. The Ieq assay measurements were made following additions with standardized time periods: • 1. The baseline VT and GT values were measured for approximately 20 minutes. • 2. Benzamil was added to block ENaC for 15 minutes. • 3. Forskolin plus VX-770 (ivacaftor) were added to maximally activate ΔF508-CFTR for 27 minutes. • 4. Bumetanide was added to inhibit the NaK2C1 cotransporter and shut-off secretion of chloride.
The activity data captured was the area under the curve (AUC) for the traces of the equivalent chloride current. The AUC was collected from the time of the forskolin/VX-770 addition until the inhibition by bumetanide addition. Correction in response to compound treatment was scored as the increase in the AUC for compound-treated samples over that of vehicle-treated samples.
(§1) (** indicates activity ≥200% of VX-809 (1 uM) with compound at 10 uM and VX-809 at 1 uM; * indicates activity 100-200% of VX-809 (1 uM) with compound at 10 uM and VX-809 at 1 uM. ^## indicates activity ≥200% of VX-809 (3 uM) with compound at 10 uM and VX-809 at 3 uM; ^# indicates activity 100-200% of VX-809 (3 uM) with compound at 10 uM and VX-809 at 3 uM.

ΔF508-CFTR [2] = target: T1, ΔF508-CFTR; test: Ussing measurements, hBEs homozygous for ΔF508; type: cell-based; settings: compound at 10 uM and VX-809 at 3 uM; ΔF508 homozygous hBE, 24 hours; CFTRinh-172 inhibitable current
Protocol: As discussed above, Ussing measurements can be used to measure CFTR activity. In this example, primary lung epithelial cells (hBEs) homozygous for the Cystic Fibrosis-causing ΔF508 mutation were differentiated for a minimum of 4 weeks in an air-liquid interface on SnapWell filter plates prior to the Ussing measurements. Cells were apically mucus-washed for 30 minutes prior to treatment with compounds. The basolateral media was removed and replaced with media containing the compound of interest diluted to its final concentration from DMSO stocks. Treated cells were incubated at 37° C. and 5% CO2 for 24 hours. At the end of the treatment period, the cells on filters were transferred to the Ussing chamber and equilibrated for 30 minutes. The short-circuit current was measured in voltage clamp-mode (Vhold=0 mV), and the entire assay was conducted at a temperature of 36° C.-36.5° C. Once the voltages stabilized, the chambers were clamped, and data was recorded by pulse readings every 5 seconds. Following baseline current stabilization, the following additions were applied and the changes in current and resistance of the cells was monitored: • 1. Benzamil to the apical chamber to inhibit ENaC sodium channel. • 2. Forskolin to both chambers to activate ΔF508-CFTR by phosphorylation. • 3. Genistein or VX-770 (ivacaftor) to both chambers to potentiate ΔF508-CFTR channel opening. • 4. CFTRinh-172 to the apical chamber to inhibit ΔF508-CFTR Cl— conductance.
(§2) The inhibitable current (that current that is blocked by CFTRinh-172) is measured as the specific activity of the ΔF508-CFTR channel, and increases in response to compound in this activity over that observed in vehicle-treated samples are identified as the correction of ΔF508-CFTR function imparted by the compound tested.
as §1

CFTR, G551D/F508del HBEs = test: Ussing measurements, class III mutation hBEs (G551D/F508del); type: cell-based, human; settings: VX-661 3 uM, Ivacaftor 1 uM, Compound A 10 uM, 24 hours
Protocol: (§3) As discussed above, Ussing measurements was used to measure CFTR activity. In this method, primary lung epithelial cells (hBEs) with a Cystic Fibrosis-causing class III mutation were differentiated for a minimum of 4 weeks in an air-liquid interface on SnapWell™ filter plates prior to the Ussing measurements. Cells were apically mucus-washed for 30 minutes prior to treatment with compounds. The basolateral media was removed and replaced with media containing the compound of interest diluted to its final concentration from DMSO stocks. Treated cells were incubated at 37° C. and 5% CO2 for 24 hours. At the end of the treatment period, the cells on filters were transferred to the Ussing chamber and equilibrated for 30 minutes. The short-circuit current was measured in voltage clamp-mode (Vhold=0 mV), and the entire assay was conducted at a temperature of 36° C.-36.5° C. Once the voltages stabilized, the chambers were clamped, and data was recorded by pulse readings every 5 seconds. Following baseline current stabilization, the following additions were applied and the changes in current and resistance of the cells was monitored: • 1. Benzamil to the apical chamber to inhibit ENaC sodium channel. • 2. Forskolin to both chambers to activate ΔF508-CFTR by phosphorylation. • 3. Genistein or VX-770 (ivacaftor) to the apical chamber to potentiate ΔF508-CFTR channel opening. • 4. CFTRinh-172 to the apical chamber to inhibit ΔF508-CFTR Cl— conductance.
as §2, with “The forskolin-sensitive current and” for “The”, “(that potentiated” for “(that”, “CFTRinh-172) were” for “CFTRinh-172) is”, “and increase” for “and increases”, “samples were” for “samples are”
(§4) The results are shown below in Tables 5 and 6. VX-661 is 3 uM, Ivacaftor is 1 uM and Compound A is 10 uM.

CFTR, S549N/F508del HBEs = test: Ussing measurements, class III mutation hBEs (S549N/F508del); type: cell-based, human; settings: Ivacaftor 1 uM, Compound A 10 uM, 24 hours
Protocol: as §3
as §2, with “The forskolin-sensitive current and” for “The”, “(that potentiated” for “(that”, “CFTRinh-172) were” for “CFTRinh-172) is”, “and increase” for “and increases”, “samples were” for “samples are”
as §4

Row | SMILES | Ieq (% VX-809) (ΔF508-CFTR [1]) | Ussing (% VX-809) (ΔF508-CFTR [2]) | further results
1 | O=C(N[C@H]1C[C@H](n2cc(CO)nn2)C1)c1cc(-c2ccccc2)on1 | * (* indicates activity 100-200% of VX-809 (1 uM) with compound at 10 uM and VX-809 at 1 uM) | ## (^## indicates activity ≥200% of VX-809 (3 uM) with compound at 10 uM and VX-809 at 3 uM) | –
2 | O=C(N[C@H]1C[C@@H](n2cc(CO)nn2)C1)c1cc(-c2ccccc2)on1 | ** (** indicates activity ≥200% of VX-809 (1 uM) with compound at 10 uM and VX-809 at 1 uM) | ## (^## indicates activity ≥200% of VX-809 (3 uM) with compound at 10 uM and VX-809 at 3 uM) | –
3 | C[C@H](O)c1nnc(C2CC(NC(=O)c3cc(-c4ccccc4)on3)C2)o1 (some centres unmarked) | – | ## (^## indicates activity ≥200% of VX-809 (3 uM) with compound at 10 uM and VX-809 at 3 uM) | –
4 | C[C@@H](O)c1nnc(C2CC(NC(=O)c3cc(-c4ccccc4)on3)C2)o1 (some centres unmarked) | – | ## (^## indicates activity ≥200% of VX-809 (3 uM) with compound at 10 uM and VX-809 at 3 uM) | –
5 | C[C@H](O)c1cnnn1[C@H]1C[C@@H](NC(=O)c2cc(-c3ccccc3)on2)C1 | ** (** indicates activity ≥200% of VX-809 (1 uM) with compound at 10 uM and VX-809 at 1 uM) | ## (^## indicates activity ≥200% of VX-809 (3 uM) with compound at 10 uM and VX-809 at 3 uM) | –
6 | CC(C)(CO)c1cc2cc(NC(=O)C3(c4ccc5c(c4)OC(F)(F)O5)CC3)c(F)cc2n1C[C@@H](O)CO [VX-661, 1-(2,2-difluoro-1,3-benzodioxol-5-yl)-N-[1-[(2R)-2,3-dihydroxypropyl]-6-fluoro-2-(2-hydroxy-1,1-dimethylethyl)-1H-indol-5-yl]-cyclopropanecarboxamide] | – | – | Activity in G551D/F508del HBEs (CFTR, G551D/F508del HBEs): 3.8 uAMP/cm^2
7 | O=C(N[C@H]1C[C@@H](n2ccc(CO)n2)C1)c1cc(-c2ccccc2)on1 | ** (** indicates activity ≥200% of VX-809 (1 uM) with compound at 10 uM and VX-809 at 1 uM) | – | –
8 | O=C(N[C@H]1C[C@@H](n2cc(CO)cn2)C1)c1cc(-c2ccccc2)on1 | * (* indicates activity 100-200% of VX-809 (1 uM) with compound at 10 uM and VX-809 at 1 uM) | – | –
9 | C[C@@H](O)c1cnnn1[C@H]1C[C@@H](NC(=O)c2cc(-c3ccccc3)on2)C1 | ** (** indicates activity ≥200% of VX-809 (1 uM) with compound at 10 uM and VX-809 at 1 uM) | – | –
10 | O=C(NC[C@H]1C[C@H](c2nnc(CO)s2)C1)c1cc(-c2ccccc2)on1 | ** (** indicates activity ≥200% of VX-809 (1 uM) with compound at 10 uM and VX-809 at 1 uM) | – | –
11 | C[C@@H](O)c1cn([C@H]2C[C@@H](NC(=O)c3cc(-c4ccccc4)on3)C2)nn1 | ** (** indicates activity ≥200% of VX-809 (1 uM) with compound at 10 uM and VX-809 at 1 uM) | – | –
12 | O=C(N[C@H]1C[C@H](n2nncc2CO)C1)c1cc(-c2ccccc2)on1 | * (* indicates activity 100-200% of VX-809 (1 uM) with compound at 10 uM and VX-809 at 1 uM) | ## (^## indicates activity ≥200% of VX-809 (3 uM) with compound at 10 uM and VX-809 at 3 uM) | –
13 | O=C(NC1CC(c2nnc(CO)o2)C1)c1cc(-c2ccccc2)on1 (centres unmarked) | – | ## (^## indicates activity ≥200% of VX-809 (3 uM) with compound at 10 uM and VX-809 at 3 uM) | –
14 | O=C(N[C@H]1C[C@H](Cc2nnc(CO)s2)C1)c1cc(-c2ccccc2)on1 | ** (** indicates activity ≥200% of VX-809 (1 uM) with compound at 10 uM and VX-809 at 1 uM) | – | –
15 | O=C(N[C@H]1C[C@@H](c2nnc(CO)s2)C1)c1cc(-c2ccccc2)on1 | ** (** indicates activity ≥200% of VX-809 (1 uM) with compound at 10 uM and VX-809 at 1 uM) | – | –
16 | O=C(NC[C@H]1C[C@@H](c2nnc(CO)s2)C1)c1cc(-c2ccccc2)on1 | ** (** indicates activity ≥200% of VX-809 (1 uM) with compound at 10 uM and VX-809 at 1 uM) | – | –
17 | O=C(N[C@H]1C[C@@H](n2nncc2CO)C1)c1cc(-c2ccccc2)on1 | ** (** indicates activity ≥200% of VX-809 (1 uM) with compound at 10 uM and VX-809 at 1 uM) | ## (^## indicates activity ≥200% of VX-809 (3 uM) with compound at 10 uM and VX-809 at 3 uM) | –
18 | Cc1ccc(NC(=O)C2(c3ccc4c(c3)OC(F)(F)O4)CC2)nc1-c1cccc(C(=O)O)c1 [VX-809, 3-(6-(1-(2,2-difluorobenzo[d][1,3]dioxol-5-yl)cyclopropanecarboxamido)-3-methylpyridin-2-yl)benzoic acid] | – | – | Activity in S549N/F508del HBEs (CFTR, S549N/F508del HBEs): 6.4 uAMP/cm^2
19 | C[C@H](O)c1cn([C@H]2C[C@@H](NC(=O)c3cc(-c4ccccc4)on3)C2)nn1 | ** (** indicates activity ≥200% of VX-809 (1 uM) with compound at 10 uM and VX-809 at 1 uM) | – | –
20 | O=C(N[C@H]1C[C@@H](Cc2nnc(CO)s2)C1)c1cc(-c2ccccc2)on1 | ** (** indicates activity ≥200% of VX-809 (1 uM) with compound at 10 uM and VX-809 at 1 uM) | ## (^## indicates activity ≥200% of VX-809 (3 uM) with compound at 10 uM and VX-809 at 3 uM) | –
